The target of assay [1] is T1, ALDH1A1 (Homo sapiens, UniProt P00352).
T1 sequence (P00352 1-501): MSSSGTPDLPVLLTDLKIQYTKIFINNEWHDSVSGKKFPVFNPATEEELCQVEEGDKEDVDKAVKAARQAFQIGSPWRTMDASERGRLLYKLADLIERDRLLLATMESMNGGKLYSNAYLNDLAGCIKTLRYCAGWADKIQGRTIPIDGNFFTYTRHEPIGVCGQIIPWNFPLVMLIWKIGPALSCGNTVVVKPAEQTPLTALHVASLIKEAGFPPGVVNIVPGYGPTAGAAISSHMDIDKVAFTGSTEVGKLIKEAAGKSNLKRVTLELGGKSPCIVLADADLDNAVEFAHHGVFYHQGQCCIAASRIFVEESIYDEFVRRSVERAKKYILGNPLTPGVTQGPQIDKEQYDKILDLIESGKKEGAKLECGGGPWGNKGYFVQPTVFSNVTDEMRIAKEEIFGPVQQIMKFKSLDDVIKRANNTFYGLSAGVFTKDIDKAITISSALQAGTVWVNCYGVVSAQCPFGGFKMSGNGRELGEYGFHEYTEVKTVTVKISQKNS
Briefly: Inhibitor screening using purified enzymes: ALDH1A1 activity, retinoic acid production by HPLC. The format is biochemical. As to conditions: purified enzyme. From the text:
ALDHs were cloned into bacterial expression vector for in vitro enzyme assays and into mammalian expression vectors for cell-based enzyme assays. Human ALDH1A1 cDNA and human ALDH2 cDNA were purchased from OriGene (SC321535) and Open Biosystems (MHS4771-99611182), respectively. and human ALDH1A2 cDNA was cloned from human testis RNA using RT-PCR (Population Division of the Department of Economic and Social Affairs of the United Nations Secretariat. World Population prospects: the 2008 revision. Available at http://www.un.org/esa/population/ (Retrieved Sep. 30, 2011)). For bacterial expression, an open reading frame of ALDH1A1 and ALDH2 were subcloned into the pETite vector (Lucigen) with a 5′ histidine-tag and that of ALDH1A2 into a pET28 vector (Novagen) with a 3′ histidine-tag. Correct frame and sequences were verified through DNA sequencing (UW DNA sequencing facility). ALDHs were induced with 1 mM IPTG and purified using His.Bind resin (Novagen, San Diego, Calif.) and stored in a buffer containing 20 mM Hepes (pH 8), 150 mM KCl and 1 mM EDTA as previously described (Fierce, Y., de Morais Vieira, M., Piantedosi, R., Wyss, A., Blaner, W. S., and Paik, J. (2008) In vitro and in vivo characterization of retinoid synthesis from beta-carotene. Archives of biochemistry and biophysics 472, 126-138).
ALDH1A1 and ALDH1A2 activity was determined as previously reported (Beedle M T, Stevison F, Zhong G, Topping T, Hogarth C, Isoherranen N, Griswold M D. Sources of All-Trans Retinal Oxidation Independent of the Aldehyde Dehydrogenase 1A Isozymes Exist in the Postnatal Testis. Biol Reprod. 2018 Sep. 21. doi: 10.1093/biolre/ioy200). Briefly, purified enzymes were incubated in a buffer containing 10 mM HEPES buffer (pH 8.0), 150 mM potassium chloride and 2 mM EDTA with 2 mM NAD. Retinoic acid production was determined using HPLC as previously reported (Amory J K, Muller C H, Shimshoni A J, Isoherranen N, Paik J, Moreb J S, Amory D W, Evanoff R, Goldstein A S, Griswold M D. Suppression of spermatogenesis by bisdichloroacetyldiamines is mediated by inhibition of testicular retinoic acid biosynthesis. Journal of Andrology 2011; 32(1):111-119). Inhibitors were diluted in DMSO and added to the reactions. […] For initial screening of inhibitors for ALDH1A2, 1 μg ALDH1A2, 5 μM all-trans-retinal and 5 μM inhibitors were incubated for 15 min at 37° C. […] For this purpose, 0.5 μg ALDH1A2 and […] were incubated for 5 minutes at 37° C. with varying concentrations of inhibitors. To determine specificity toward ALDH1A2, the IC50 for […]

Assay [2] concerns the target T2, ALDH2 (Homo sapiens, UniProt P05091).
T2 construct: histidine-tag (N); made in house; host or cells: bacterial expression (pETite vector, IPTG induction)
T2 sequence (P05091 18-517): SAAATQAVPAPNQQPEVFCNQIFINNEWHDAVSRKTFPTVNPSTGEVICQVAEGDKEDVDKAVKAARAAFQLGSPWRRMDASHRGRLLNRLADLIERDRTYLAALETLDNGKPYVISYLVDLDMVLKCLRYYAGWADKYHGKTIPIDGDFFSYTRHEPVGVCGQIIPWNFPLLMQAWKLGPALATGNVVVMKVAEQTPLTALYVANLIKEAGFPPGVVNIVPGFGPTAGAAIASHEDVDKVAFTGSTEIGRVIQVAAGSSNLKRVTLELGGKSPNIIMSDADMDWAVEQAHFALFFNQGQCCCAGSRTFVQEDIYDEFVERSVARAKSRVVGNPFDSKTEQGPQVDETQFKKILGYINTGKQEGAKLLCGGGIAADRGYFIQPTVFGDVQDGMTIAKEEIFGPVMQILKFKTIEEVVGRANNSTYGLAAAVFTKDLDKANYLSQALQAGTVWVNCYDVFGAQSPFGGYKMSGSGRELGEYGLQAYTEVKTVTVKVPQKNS
Briefly: Purified ALDH2 assay with propanal, NADH fluorescence. The format is biochemical. The settings on record: purified enzyme. Put shortly:
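His-tagged human ALDH2 expressed in bacteria and purified. 2 μg enzyme incubated with 20 μM propanal and varying inhibitor concentrations at room temperature. Activity read as NADH fluorescence (Ex 350/Em 460 nm), with initial velocity from two consecutive readings over 1 minute.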

Among the data in patent US11548875B2, “Inhibitor compounds for male contraception” (University of Washington, priority 2018, dated 2023) are IC50 values, retold here.

Usually IC50 stands for the concentration that inhibits the measured activity by half. Higher therefore signals weaker potency in that assay. With “3-(4-Acryloylphenyl)-1-phenyl-1H-pyrazole-4-carbaldehyde [Compound 309]”, the figures for the IC50 in assay [1] and in assay [2] were 0.005 µM and over 0.16 µM, respectively.
For “3-{4-[(Chloroacetyl)amino]phenyl}-N-(3-fluorophenyl)-1-phenyl-1H-pyrazole-4-carboxamide [Compound 294]” the same measures were 0.003 µM and 24.4 µM.
For `N#Cc1ccc(-n2cc(C(=O)Nc3cccc(F)c3)c(-c3ccc(NC(=O)C(Cl)Cl)cc3)n2)cc1` [Compound 316a, 3-(4-Dichloroacetamidophenyll)-N-(3-fluorophenyl)-1-(4-cyanophenyl)-1H-pyrazole-4-carboxamide] the same measures were 0.249 µM and 4 µM.
As to `O=C(c1ccccc1)N1CCN(c2ccc([N+](=O)[O-])c(N3CCCC3)c2)CC1` [Compound 339, Phenyl-1-{4-[4-nitro-3-(pyrrolidin-1-yl)phenyl]piperazin-1-yl}methanone], the IC50 in assay [1] came out at 0.675 µM; in assay [2] it was 48.1 µM.
For `O=C(c1cccc(Cl)c1)N1CCN(c2ccc([N+](=O)[O-])c(N3CCCC3)c2)CC1` [Compound 341, 3-Chlorophenyl-1-{4-[4-nitro-3-(pyrrolidin-1-yl)phenyl]piperazin-1-yl}methanone] the same measures were 1.65 µM and over 100 µM.
As to `O=C(c1ccc[nH]1)N1CCN(c2ccc([N+](=O)[O-])c(N3CCCC3)c2)CC1` [Compound 344, {4-[4-Nitro-3-(pyrrolidin-1-yl)phenyl]piperazin-1-yl}(1H-pyrrol-2-yl)methanone], the IC50 in assay [1] was 0.453 µM; in assay [2], 48.6 µM.
With `CC(=O)n1cccc1C(=O)N1CCN(c2ccc([N+](=O)[O-])c(N3CCCC3)c2)CC1` [Compound 347, {4-[4-Nitro-3-(pyrrolidin-1-yl)phenyl]piperazin-1-yl}(1-acetyl-pyrrol-2yl)methanone], the IC50 stood at 1.07 µM in assay [1] and 61.6 µM in assay [2].
The matching figures for `Cn1cccc1C(=O)N1CCN(c2ccc(NC(=O)C(Cl)Cl)c(N3CCCC3)c2)CC1` [Compound 367, 1-[4-(4-N-Dichloroacetyl-3-(pyrrolidin-1-yl)phenyl]piperazin-1-yl](1-methyl-1H-pyrrol-2-yl)methanone]: 0.23 µM and over 80 µM.
For `Cn1cccc1C(=O)N1CCN(c2ccc(NC(=O)CCl)c(N3CCCC3)c2)CC1` [Compound 372, 1-[4-(4-N-Chloroacetyl-3-(pyrrolidin-1-yl)phenyl]piperazin-1-yl](1-methyl-1H-pyrrol-2-yl)methanone] the same measures were 0.3 µM and 3.5 µM.
For `Cn1cccc1C(=O)N1CCN(c2ccc(-c3ccc([N+](=O)[O-])cc3)c(N3CCCCC3)c2)CC1` [Compound 373] the same measures were 1.44 µM and over 100 µM.
